Measured values taken from patent US20050221328A1, “Inhibitors of inflammatory gene activity and cholesterol biosynthesis” (Wyeth, priority 2002, published 2005).

Tests used:
[1] = test system: Fnk, JAB, LIX, bcl-3 and SHP; assay: Liver expression of Fnk, JAB, LIX, bcl-3 and SHP by realtime PCR after estrogen receptor ligand pretreatment and IL-1β; conditions: 100 ug/kg/day EE, 5 mg/kg/day raloxifene
Method: Referring to FIG. 3a, to distinguish these two mechanisms, the IL-1β fold induction of Fnk, JAB, LIX, and bcl-3 and the IL-1β fold repression of SHP was quantified in animals pretreated with vehicle (black bars) or 100 ug/kg/day EE (grey bars). Liver RNA levels of each gene (mean +/−SEM) were determined by realtime PCR of RNA from each individual animal.
Referring to FIGS. 4a, 4b, 4c, 4d and 4e, experiments were conducted to determine whether EE blocks IL-1β induction of gene expression by an estrogen receptor (ER) dependent mechanism. Estrogens can regulate gene expression by many mechanisms including ER independent pathways such as antioxidant mechanisms. […] Liver expression levels of Fnk, JAB, LIX, bcl-3 and SHP (mean +/−SEM) were determined by realtime PCR.
Referring to FIGS. 5a, 5b, 5c, 5d, and 5e, experiments were conducted to determine whether ERα is required for EE regulation of gene expression in the liver. To determine whether ERα or ERβ mediated the EE effects on IL-1β gene expression in the liver, C57BL/6 wild type mice, C57BL/6 ERαKO mice, or 129 ERβKO mice were pretreated with vehicle (black bars) or […] EE (gray bars) for 5 days followed by a 1 hour treatment with IL-1β. Liver expression levels of Fnk, JAB, LIX, bcl-3, and SHP (mean +/−SEM) were quantified by realtime PCR, with expression in animals receiving vehicle+PBS defined as 1.0.

[2] = test system: prostaglandin D synthase, IPS; assay: Liver expression of prostaglandin D synthase and IPS; type: in vivo; conditions: mouse liver; 30 mg/kg/day genistein, 5 mg/kg/day raloxifene
Text: Referring to FIGS. 6a and 6b, experiments were constructed and performed to establish that EE induction of gene expression is not required for ERα inhibition of IL-1β gene inductions. […] The expression level in the vehicle+PBS treated mice was defined as 1.0. […] However, there was no correlation between the ability of these compounds to inhibit IL-1β gene induction (EE>genistein>raloxifene) and the ability of these compounds to stimulate prostaglandin D synthase expression (EE>>raloxifene>genistein).

effect on regulation of liver Fnk, JAB, LIX, bcl-3 and SHP expression vs IL-1β alone ([1]; mice, 1 or 10 mg/kg/day E2, 30 mg/kg/day genistein, 10 mg/kg/day ICI182780, plus IL-1β): magnitude was not as great | inhibition of IL-1β induction of Fnk, JAB, LIX and bcl-3 ([1]; mouse liver, 30 mg/kg/day genistein): inhibited
Structure (SMILES): O=c1c(-c2ccc(O)cc2)coc2cc(O)cc(O)c12 [Genistein, genistein]
induction of IPS [2]: no induction
